Patent EP4603105A1, “PHARMACEUTICAL COMPOSITION CONTAINING CYCLIC COMPOUND HAVING SELECTIVE KRAS INHIBITORY EFFECT AGAINST HRAS AND NRAS” (CHUGAI SEIYAKU KABUSHIKI KAISHA, priority 2022, dated 2024)
Where a SMILES comes first, the peptide text is derived from it. Bridges are numbered along the chain shown (N, C = ends). [ ]: non-standard residue; d: D form. The star is where a group is joined. hPhe(3-Cl-4-CF3) = N[C@@H](CCc1ccc(C(F)(F)F)c(Cl)c1)C(=O)O; NPrPhe(4-CF3) = CCCN[C@@H](Cc1ccc(C(F)(F)F)cc1)C(=O)O; NMeGly(cPent) = CN[C@H](C(=O)O)C1CCCC1; NMeD = CN[C@@H](CC(=O)O)C(=O)O; NMeL = CN[C@@H](CC(C)C)C(=O)O; Morpholide = C1CN(*)CCO1; Ac5c = NC1(C(=O)O)CCCC1; NEtG = CCNCC(=O)O; Sar = CNCC(=O)O

Columns and labels:
HRAS wild-type protein = HRAS wild-type protein (Homo sapiens, UniProt P01112); assay: Binding to HRAS by surface plasmon resonance (SPR), KD and KD ratio to KRAS
In short: (§1)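 Measured at 30°C: SPR with GDP-loaded, E. coli-expressed biotin-Avi RAS captured (~100–300 RU), ascending 75 s compound injections, HBS pH 7.4 with GDP, MgCl2, 4% DMSO. KD from 1:1 fit.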

[1] = target: GDP-bound NRAS wild-type protein (Homo sapiens, UniProt P01111); assay: Binding to NRAS by surface plasmon resonance (SPR), KD and KD ratio to KRAS
In short: as §1

[2] = tested on: human lung cancer strain NCI-H441; assay type: cell-based
In short: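 Signal came from […] measured per well once the reagent was added. Beforehand, cells were cultured at 37°C and 5% carbon dioxide on a compound series serially diluted in dimethyl sulfoxide.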

[3] = ratio of KD for HRAS wild-type protein to KD for KRAS
[4] = ratio of KD for GDP-bound NRAS wild-type protein to KD for KRAS
[5] = ratio of KD value for HRAS wild-type protein to KD value for KRAS (SPR)
[6] = ratio of KD value for GDP-bound NRAS wild-type protein to KD value for KRAS (SPR)

Chain of GDP-bound NRAS wild-type protein (P01111 whole entry): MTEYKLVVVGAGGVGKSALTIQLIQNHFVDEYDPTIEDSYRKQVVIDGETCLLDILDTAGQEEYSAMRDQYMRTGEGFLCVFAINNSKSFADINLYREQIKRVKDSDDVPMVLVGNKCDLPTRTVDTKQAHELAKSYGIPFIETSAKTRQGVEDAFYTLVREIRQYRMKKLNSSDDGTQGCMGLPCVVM
Chain of HRAS wild-type protein (P01112 whole entry): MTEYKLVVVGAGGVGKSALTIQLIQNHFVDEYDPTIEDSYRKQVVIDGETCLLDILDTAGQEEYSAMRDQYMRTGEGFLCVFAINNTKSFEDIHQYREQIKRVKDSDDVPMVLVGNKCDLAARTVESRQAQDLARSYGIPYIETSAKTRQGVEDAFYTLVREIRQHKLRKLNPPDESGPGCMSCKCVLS

SMILES | IC50 [2] | HRAS /KRAS (HRAS wild-type protein; ratio of the KD value with respect to HRAS wild-type protein to the KD value with respect to KRAS) | NRAS /KRAS ([1]; ratio of the KD value with respect to GDP-bound NRAS wild-type protein to the KD value with respect to KRAS) | HRAS /KRAS (HRAS wild-type protein; [3]) | NRAS /KRAS [1, 4] | HRAS /KRAS (HRAS wild-type protein; [5]) | NRAS /KRAS [1, 6]
CCCN1C(=O)CN(C)C(=O)CN(CC)C(=O)[C@H]([C@@H](C)CC)NC(=O)[C@H](CC(C)C)N(C)C(=O)C[C@@H](C(=O)N2CCOCC2)N(C)C(=O)[C@H](C2CCCC2)N(C)C(=O)C2(CCCC2)NC(=O)CN(C)C(=O)[C@H](CCc2ccc(C(F)(F)F)c(Cl)c2)NC(=O)CN(C)C(=O)[C@@H]1Cc1ccc(C(F)(F)F)cc1 [PP0300] ([NMeL]I[NEtG][Sar][NPrPhe(4-CF3)][Sar][hPhe(3-Cl-4-CF3)][Sar][Ac5c][NMeGly(cPent)][NMeD]-Morpholide; lactam N-11) | 73.9 nM |  |  | C (A compound having a KD ratio of 0.1 or more and less than 3 is denoted as C) | B (a compound having 3 or more and less than 10 is denoted as B) |  | 
CCO[C@@H]1C[C@H]2C(=O)NC3(CCC3)C(=O)N(C)[C@@H](C(CC)CC)C(=O)N(C)[C@H](C)CC(=O)N(C)[C@@H](CC3CCCC3)C(=O)N[C@@H]([C@@H](C)CC)C(=O)N(C)CC(=O)N(C)[C@H]3C/C=C\CCN(C3=O)[C@@H](Cc3ccc(F)cc3C)C(=O)N(C)CC(=O)N[C@@H](CCc3cc(F)c(C(F)(F)F)c(F)c3)C(=O)N2C1 [PP1522] | 567 nM |  |  |  |  | A (a compound having 10 or more and less than 20 is denoted as A) | A (a compound having 10 or more and less than 20 is denoted as A)
CCC[C@H]1C(=O)N[C@@H]([C@@H](C)CC)C(=O)N(C)CC(=O)N(C)[C@H]2C/C=C\CCN(C2=O)[C@@H](Cc2ccc(C(F)(F)F)cc2)C(=O)N(C)CC(=O)N[C@@H](CCc2ccc(C(F)(F)F)c(OC)c2)C(=O)N2CCCCC[C@H]2C(=O)NC2(CC(C)(C)C2)C(=O)N(C)[C@@H](C(CC)CC)C(=O)N(C)[C@H](C(=O)N(C)C)CC(=O)N1C [PP2968] | 29.5 nM |  |  | A (a compound having 10 or more and less than 20 is denoted as A) | AA (a compound having 20 or more is denoted as AA) |  | 
CCO[C@@H]1C[C@H]2C(=O)NC3(CCC3)C(=O)N(C)[C@@H](C3CCCC3)C(=O)N(C)[C@H](C(=O)N3CCOCC3)CC(=O)N(C)[C@@H](CC3CC3)C(=O)N[C@@H]([C@@H](C)CC)C(=O)N(C)CC(=O)N(C)[C@H]3C/C=C\CCN(C3=O)[C@@H](Cc3ccc(F)cc3)C(=O)N(C)CC(=O)N[C@@H](CCc3cc(F)c(C(F)(F)F)c(F)c3)C(=O)N2C1 [PP1496] | 36.7 nM |  |  |  |  | B (a compound having 3 or more and less than 10 is denoted as B) | A (a compound having 10 or more and less than 20 is denoted as A)

Compounds with a lower IC50 [2], results first:

IC50 [2] | SMILES | HRAS /KRAS (HRAS wild-type protein; ratio of the KD value with respect to HRAS wild-type protein to the KD value with respect to KRAS) | NRAS /KRAS ([1]; ratio of the KD value with respect to GDP-bound NRAS wild-type protein to the KD value with respect to KRAS) | HRAS /KRAS (HRAS wild-type protein; [3]) | NRAS /KRAS [1, 4] | HRAS /KRAS (HRAS wild-type protein; [5]) | NRAS /KRAS [1, 6]
20 nM | CCO[C@@H]1C[C@H]2C(=O)NC3(CCCC3)C(=O)N(C)[C@@H](C3CCCC3)C(=O)N(C)[C@H](C(=O)N(C)C)CC(=O)N(C)[C@@H](CC(C)C)C(=O)N[C@@H]([C@@H](C)CC)C(=O)N(C)CC(=O)N(C)[C@H]3C/C=C\CCN(C3=O)[C@@H](Cc3ccc(C(F)(F)F)cc3)C(=O)N(C)CC(=O)N[C@@H](CCc3cc(F)c(Cl)c(F)c3)C(=O)N2C1 [PP2269] | A (a compound having 10 or more and less than 20 is denoted as A) | A (a compound having 10 or more and less than 20 is denoted as A) |  |  |  | 
14.1 nM | CCC[C@H]1C(=O)N[C@@H]([C@@H](C)CC)C(=O)N(C)CC(=O)N(C)[C@H]2C/C=C\CCN(C2=O)[C@@H](Cc2ccc(C)cc2)C(=O)N(C)CC(=O)N[C@@H](CCc2ccc(C(F)(F)F)c(OC)c2)C(=O)N2C[C@H](OCC)C[C@H]2C(=O)NC2(CC(C)(C)C2)C(=O)N(C)[C@@H]([C@@H](C)CC)C(=O)N(C)[C@H](C(=O)N(C)C)CC(=O)N1C [PP3006] |  |  | A (a compound having 10 or more and less than 20 is denoted as A) | A (a compound having 10 or more and less than 20 is denoted as A) |  | 
5.2 nM | CC[C@H](C)[C@@H]1NC(=O)[C@H](CC(C)C)N(C)C(=O)C[C@@H](C(=O)N(C)C)N(C)C(=O)[C@H](C2CCCC2)N(C)C(=O)C2(CCC2)NC(=O)[C@@H]2C[C@@H](C)CN2C(=O)[C@H](CCc2ccc(C(F)(F)F)c(Cl)c2)NC(=O)CN(C)C(=O)[C@H](Cc2ccc(C)cc2)N2CC/C=C\C[C@@H](C2=O)N(C)C(=O)CN(C)C1=O [PP1854] |  |  |  |  | A (a compound having 10 or more and less than 20 is denoted as A) | A (a compound having 10 or more and less than 20 is denoted as A)
16.2 nM | CC[C@H](C)[C@@H]1NC(=O)[C@H](CC2CC2)N(C)C(=O)C[C@@H](C(=O)N(C)C)N(C)C(=O)[C@H](C2CCCC2)N(C)C(=O)C2(CC(C)(C)C2)NC(=O)[C@@H]2C[C@@H](C(F)(F)F)CN2C(=O)[C@H](CCc2cc(F)c(C(F)(F)F)c(F)c2)NC(=O)CN(C)C(=O)[C@H](Cc2ccc(F)cc2)N2CC/C=C\C[C@@H](C2=O)N(C)C(=O)CN(C)C1=O [PP1507] |  |  |  |  | A (a compound having 10 or more and less than 20 is denoted as A) | A (a compound having 10 or more and less than 20 is denoted as A)
